{
  "source": "patent US20250059187A1",
  "about": "“COVALENTLY BINDING INHIBITORS OF G12S, G12D AND/OR G12E MUTANTS OF K-RAS GTPASE” (The Regents of the University of California, priority 2021, published 2025)",
  "key": {"K-Ras G12D [1]": {"target": "T1, K-Ras G12D (Homo sapiens, UniProt P01116, G12D)", "T1 construct": "human K-Ras (G12D, aa 1-169); 6xHis tag + TEV cleavage site (N, cleaved yes); made in house; host or cells: E. coli BL21(DE3)", "assay": "Stability of the adduct between K-Ras(G12D) and the compound"}, "K-Ras(G12S)": {"target": "K-Ras(G12S) (Homo sapiens, UniProt P01116, G12S)", "assay": "Covalent modification of recombinant K-Ras(G12S) by whole-protein mass spectrometry", "format": "binding", "design": "human K-Ras (G12S, aa 1-169); 6xHis tag + TEV cleavage site (N, cleaved yes); made in house; host or cells: E. coli BL21(DE3)", "conditions": "10 μM compound, 23° C.", "in_short": "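Recombinant K-Ras diluted to 400 nM or 1 μM in 20 mM HEPES pH 7.5, 150 mM NaCl, 1 mM MgCl2 and incubated with compound added from 100× DMSO stock. Modification extent measured by electrospray whole-protein mass spectrometry; kinetics used 1:1 mixing with 400 nM protein and injection time stamps for elapsed time.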"}, "wild type K-Ras": {"target": "T2, wild type K-Ras (Homo sapiens, UniProt P01116)", "T2 construct": "human K-Ras (wildtype, aa 1-169); 6xHis tag + TEV cleavage site (N, cleaved yes); made in house; host or cells: E. coli BL21(DE3)", "assay": "Covalent modification of recombinant wild-type K-Ras by whole-protein mass spectrometry", "format": "binding", "conditions": "10 μM, 23° C., after 1 h"}, "K-Ras G12D [2]": {"target": "T1, K-Ras G12D", "assay": "Covalent modification of recombinant K-Ras(G12D) by whole-protein mass spectrometry", "format": "binding", "conditions": "10 μM, 23° C.", "description": "(§1) Test compounds were prepared as 100× stock solutions in DMSO. K-Ras proteins were diluted with SEC Buffer (20 mM HEPES 7.5, 150 mM NaCl, 1 mM MgCl2) to 400 nM or 1 μM. In a typical reaction, 0.5 μL 100× compound stock was mixed with 50 μL diluted K-Ras protein, and the resulting mixture was incubated for the desired amount of time. The extent of modification was assessed by electrospray mass spectrometry using a Waters Xevo G2-XS system equipped with an Acquity UPLC BEH C4 1.7 μm column. The mobile phase was a linear gradient of 5-95% acetonitrile/water+0.05% formic acid. For kinetic measurements, a 2× compound solution was first prepared in SEC Buffer, which was then mixed with 400 nM K-Ras(G12D) protein at 1:1 (v/v) ratio. Injection time stamps were used to calculate elapsed time."}, "K-Ras G12D [3]": {"target": "T1, K-Ras G12D", "assay": "Differential scanning fluorimetry of K-Ras(G12D) and its covalent adducts", "format": "binding", "description": "The protein of interest was diluted with SEC Buffer [20 mM HEPES 7.5, 150 mM NaCl, 1 mM MgCl2] to 8 μM. This solution was dispensed into wells of a white 96-well PCR plate in triplicate (25 μL/well). Fluorescence was measured at 0.5-° C. temperature intervals every 30 s from 25° C. to 95° C. on a Bio-Rad CFX96 qPCR system using the FRET setting. Each data set was normalized to the highest fluorescence and the normalized fluorescence reading was plotted against temperature in GraphPad Prism 8.0. Tm values were determined as the temperature(s) corresponding to the maximum(ma) of the first derivative of the curve."}, "K-Ras G12E": {"target": "T3, K-Ras G12E (Homo sapiens, UniProt P01116, G12E)", "T3 construct": "human K-Ras (G12E, aa 1-169); 6xHis tag + TEV cleavage site (N, cleaved yes); made in house; host or cells: E. coli BL21(DE3)", "assay": "Covalent modification of recombinant K-Ras(G12E) by whole-protein mass spectrometry", "format": "binding", "conditions": "10 μM, 23° C.", "description": "as §1"}, "[4]": {"target": "T4, interaction between Raf-RBD and K-Ras(G12D) (Homo sapiens, UniProt P01116, G12D)", "T4 construct": "human K-Ras (G12D, aa 1-169); 6xHis tag + TEV cleavage site (N); made in house; host or cells: E. coli BL21(DE3) for K-Ras", "assay": "Time-resolved fluorescence energy transfer assay, Raf-RBD and K-Ras(G12D)", "format": "biochemical", "conditions": "dose-dependent"}, "K-Ras(G13D)": {"target": "T5, K-Ras(G13D) (Homo sapiens, UniProt P01116, G13D)", "T5 construct": "human K-Ras (G13D, aa 1-169); 6xHis tag + TEV cleavage site (N, cleaved yes); made in house; host or cells: E. coli BL21(DE3)", "assay": "Covalent modification of recombinant K-Ras(G13D) by whole-protein mass spectrometry", "format": "binding", "conditions": "10 μM, 23° C., after 1 h", "description": "as §1"}, "[5]": {"target": "T6, interaction between Raf-RBD and wildtype K-Ras (Homo sapiens, UniProt P01116)", "T6 construct": "human K-Ras (wildtype, aa 1-169); 6xHis tag + TEV cleavage site (N); made in house; host or cells: E. coli BL21(DE3) for K-Ras", "assay": "Time-resolved fluorescence energy transfer assay, Raf-RBD and wildtype K-Ras", "format": "biochemical"}, "[6]": {"target": "T7, Raf-RBD / K-Ras(G12D)·GppNHp (Homo sapiens, UniProt P01116, G12D)", "T7 construct": "human K-Ras (G12D, aa 1-169); 6xHis tag + TEV cleavage site (N); made in house; host or cells: E. coli BL21(DE3) for K-Ras", "assay": "Biolayer interferometry, Raf-RBD binding of the K-Ras(G12D)·GppNHp adduct", "conditions": "compared to unmodified K-Ras(G12D)·GppNHp"}, "[7]": {"test_system": "KRAS G12D mutation cancer cell lines", "assay": "Growth inhibition of KRAS G12D cancer cell lines", "format": "cell-based", "description": "Cells were seeded into 96-well white flat bottom plates (1,000 cells/well) (Corning) and incubated overnight. Cells were treated with the indicated compounds in a nine-point threefold dilution series (100 μL final volume) and incubated for 72 h. Cell viability was assessed using a commercial CellTiter-Glo (CTG) luminescence-based assay (Promega). Briefly, the 96-well plates were equilibrated to room temperature before the addition of diluted CTG reagent […] (1:4 CTG reagent:PBS). Plates were placed on an orbital shaker for 30 min before recording luminescence using a Spark 20M (Tecan) plate reader."}},
  "data": [
    {"molecule": "C#Cc1cccc2cccc(-c3ncc4c(N5C[C@H]6CC[C@@H](C5)N6C(=O)C5CC(=O)O5)nc(OCC56CCCN5CCC6)nc4c3F)c12", "note": "(mixture of isomers) [Compound 1]", "values": [
      {"measurement": "stability of the K-Ras(G12D) adduct over pH", "setting": "K-Ras G12D [1]", "value": "stable over a range of pH (5.0-8.5)"},
      {"measurement": "stability of the K-Ras(G12D) adduct with DTT", "setting": "K-Ras G12D [1]; 1 mM DTT, 23° C.", "value": "did not degrade in the presence of 1 mM DTT"},
      {"measurement": "covalent reaction with K-Ras(G12S)·GDP", "setting": "K-Ras(G12S)", "value": "did not react with K-Ras(G12S)·GDP"},
      {"measurement": "modification of K-Ras(wildtype)·GDP", "setting": "wild type K-Ras", "value": "no detectable modification"},
      {"measurement": "activity against GppNHp-bound K-Ras(G12D)", "setting": "K-Ras G12D [2]", "value": "also active against the GppNHp-bound K-Ras(G12D)"},
      {"measurement": "time to full modification of K-Ras(G12D)·GDP", "setting": "K-Ras G12D [2]", "value": "less than 15 minutes"},
      {"measurement": "ΔTm of K-Ras(G12D)·GDP on covalent modification", "setting": "K-Ras G12D [3]; GDP state", "value": "+10.3 °C"},
      {"measurement": "ΔTm of K-Ras(G12D)·GppNHp on covalent modification", "setting": "K-Ras G12D [3]; GppNHp state", "value": "+2.5 °C"},
      {"measurement": "reactivity with K-Ras(G12E)·GDP", "setting": "K-Ras G12E", "value": "markedly reduced reactivity"},
      {"measurement": "interaction between Raf-RBD and K-Ras(G12D)", "setting": "[4]", "value": "inhibited the interaction between Raf-RBD and K-Ras(G12D)"},
      {"measurement": "modification of K-Ras(G13D)·GDP", "setting": "K-Ras(G13D)", "value": "6.5±0.3", "unit": "%"},
      {"measurement": "interaction between Raf-RBD and wildtype K-Ras", "setting": "[5]", "value": "not wildtype K-Ras"},
      {"measurement": "binding of the K-Ras(G12D)·GppNHp adduct to Raf-RBD", "setting": "[6]", "value": "substantially decreased binding to Raf-RBD"},
      {"measurement": "growth of KRAS G12D cancer cell lines", "setting": "[7]", "value": "inhibited growth of KRAS^G12D cancer cell lines"}
    ]}
  ]
}
